{"source": "paper PMC8534003", "about": "“The Chemokine-Based Peptide, CXCL9(74-103), Inhibits Angiogenesis by Blocking Heparan Sulfate Proteoglycan-Mediated Signaling of Multiple Endothelial Growth Factors” (Cancers, 2021)", "system": "heparan sulfate (HS) / VEGF165", "assay": "ELISA-like GAG binding assay, competition with VEGF165 for HS binding", "design": "species or system human", "settings": "HS 25 µg/mL, pH 7.2, 37 °C, 2 h, n = 5", "description": "The ability of the CXCL9-derived peptides to compete with VEGF165 for HS binding was assessed in an ELISA-like GAG binding assay. First, the GAG binding plates (Galen Laboratory Supplies, North Haven, CT, USA) were coated with 25 µg/mL HS (Iduron, Alderley Edge, UK) in standard assay buffer (SAB) [100 mM NaCl, 50 mM sodium acetate, 0.2% (v/v) Tween® 20 in ultrapure water, pH 7.2] at room temperature overnight. The plates were washed with SAB and blocked with blocking buffer [SAB supplemented with 0.2% (w/v) gelatin] at 37 °C for 1 h to prevent nonspecific binding. Then, dilutions of VEGF165 and the peptides, CXCL9(74-103) or CXCL9(86-103), were added and allowed to interact at 37 °C for 2 h. Unbound material was removed through washing and biotinylated polyclonal goat anti-human VEGF165 antibody (PeproTech) in blocking buffer was added to interact with HS-bound VEGF165 at 37 °C for 1 h. Following additional washing steps, detection was performed with streptavidin-horseradish peroxidase (HRP) (R&D Systems) in blocking buffer at 37 °C for 30 min and conversion of 3,3’,5,5’-tetramethylbenzidine (TMB) to a colorimetric signal in the presence of 0.015% (v/v) H2O2. The reaction was stopped by the addition of H2SO4 and the absorbance was measured at 450 nm. All incubation steps were performed in the dark."}
{"sequence": "KKVLKVRKSQRSRQKKTT [CXCL9(86-103)]", "values": [{"measurement": "inhibition of VEGF165 binding to HS", "setting": "30-fold molar excess of peptide over VEGF165", "result": "≈ 20%"}, {"measurement": "inhibition of VEGF165 binding to HS", "setting": "300-fold molar excess of peptide over VEGF165", "result": 40, "unit": "%"}]}
